{
  "source": "patent US8188093B2",
  "about": "“Pyrazinecarboxamide derivatives as HDL-cholesterol raising agents” (Hoffmann-La Roche Inc., priority 2006, dated 2012)",
  "key": {"[1]": {"test_system": "lean, chow-fed male Sprague-Dawley rats", "test": "Effects on plasma lipid levels (HDL cholesterol) in lean, chow fed rats", "type": "in vivo, rat", "conditions": "30 mg/kg p.o. of compound, once daily for five days, size exclusion chromatography AUC", "procedure": "Effects of compounds of formula I on plasma lipid levels were determined in lean, chow-fed male Sprague-Dawley rats with compounds administered by p.o. gavage. After one week of acclimation, blood samples were collected from 4 hour-fasted animals for plasma lipid determination. Animals were then assigned to treatment groups based on HDL-cholesterol levels. Compounds of formula I were administered by gavage, once daily for five days. Control animals received vehicle alone. Blood was collected on day five from 4 hour-fasted rats, 2 hours after a final treatment, for plasma lipid analysis. Total cholesterol, HDL-cholesterol, and triglycerides were determined by measuring total cholesterol, HDL-cholesterol, and triglyceride using colorimetric enzymatic assays (Roche Diagnostic GmbH, Mannheim, Germany). HDL-C was also quantified using size exclusion chromatography on superpose-6 column using a SMART system (Pharmacia). Lipoprotein distribution was calculated assuming a Gaussian distribution for each peak, using a nonlinear, least-squares curve-fitting procedure to calculate the area under the curve (AUC). Compound concentration was also determined in plasma."}, "[2]": {"test_system": "hamsters", "test": "Effects on plasma lipid levels (HDL cholesterol) in hamsters", "type": "in vivo, hamster", "conditions": "30 mg/kg po of compound, once daily for five days", "procedure": "Efficacy of compounds in modulating plasma lipid levels was determined in hamsters after 5 days of daily administration of compounds. Male hamsters of 6-8 weeks of age were used in the studies. After one week of acclimation, blood samples were collected from 4 hour-fasted animals for plasma lipid determination. Animals were then assigned to treatment groups based on HDL-cholesterol levels. Compounds were administered by gavage, once daily for five days. Control animals received vehicle alone. Blood was collected on day five from 4 hour-fasted hamsters, 2 hours after a final treatment, for plasma lipid analysis. Total cholesterol, HDL-cholesterol, LDL-cholesterol, and triglycerides were determined using colorimetric enzymatic assays (Roche Diagnostic GmbH, Mannheim, Germany). HDL-cholesterol, LDL-cholesterol, and VLDL-cholesterol levels were also quantified using size exclusion chromatography on superpose-6 column using a SMART system (Pharmacia). Lipoprotein distribution was calculated assuming a Gaussian distribution for each peak, using a nonlinear, least-squares curve-fitting procedure to calculate the area under the curve. Compound concentration was also determined in plasma."}, "[3]": {"test_system": "obese male Sprague Dawley rats", "test": "Effects on plasma lipid levels (HDL cholesterol) in obese, high fat diet fed rats", "type": "in vivo, rat", "conditions": "28-29 days", "procedure": "Efficacy of compounds in modulating plasma lipid levels was determined also in obese male Sprague Dawley rats after 28-29 days administration of compounds. Male Sprague-Dawley rats of 10 weeks of age were fed a high fat diet during 3 weeks. Obese rats were distributed in groups according to homogeneous BW and FI evaluated a week before the start of the treatment. Treatment was administered as food-Admix. On day 29, blood was taken in the morning under slight anesthesia (retro-orbital method) in post-prandial conditions i.e. 4 h after food was removed. Plasma was separated from blood by low speed centrifugation and selected organs were taken (e.g. liver, fat). Total cholesterol, HDL-cholesterol, and triglycerides were determined by measuring total cholesterol, HDL-cholesterol and triglyceride using colorimetric enzymatic assays (Roche Diagnostic GmbH, Mannheim, Germany). HDL-C was also quantified using size exclusion chromatography on superpose-6 column using a SMART system (Pharmacia). Lipoprotein distribution was calculated assuming a Gaussian distribution for each peak, using a nonlinear, least-squares curve-fitting procedure to calculate the area under the curve (AUC). Compound concentration was also determined in plasma."}, "[4]": {"conditions": "30 mg/kg food admix of compound"}},
  "data": [
    {"smiles": "O=C(N[C@@H]1CCCC[C@H]1O)c1cnc(OCC2CC2)c(-c2ccc(F)cc2)c1", "note": "[6-cyclopropylmethoxy-5-(4-fluoro-phenyl)-N-((1R,2R)-2-hydroxy-cyclohexyl)-nicotinamide]", "values": [
      {"measurement": "HDL Cholesterol levels [AUC as % compared to control]", "setting": "[1]", "result": "+35%"}
    ]},
    {"smiles": "O=C(N[C@@H]1CCCC[C@H]1O)c1cnc(OCC(F)(F)F)c(-c2ccc(Cl)cc2)c1", "note": "[5-(4-chloro-phenyl)-N-((1R,2R)-2-hydroxy-cyclohexyl)-6-(2,2,2-trifluoroethoxy)-nicotinamide]", "values": [
      {"measurement": "HDL Cholesterol levels [AUC as % compared to control]", "setting": "[2]", "result": "+69%"},
      {"measurement": "HDL Cholesterol levels [AUC as % compared to control]", "setting": "[1]", "result": "+78%"}
    ]},
    {"smiles": "O=C(N[C@@H]1CCCC[C@H]1O)c1cnc(Oc2ccccc2Cl)c(-c2ccc(Cl)cc2)n1", "note": "[Example 39, 5-(2-Chloro-phenoxy)-6-(4-chloro-phenyl)-pyrazine-2-carboxylic acid ((1R,2R)-2-hydroxy-cyclohexyl)-amide]", "values": [
      {"measurement": "melting point", "result": "154 to 155", "unit": "°C"}
    ]},
    {"smiles": "C[C@](O)(CNC(=O)c1cnc(OCC2CC2)c(-c2ccc(F)cc2)c1)C1CC1", "note": "[N—((R)-2-cyclopropyl-2-hydroxy-propyl)-6-cyclopropylmethoxy-5-(4-fluorophenyl)-nicotinamide]", "values": [
      {"measurement": "HDL Cholesterol levels [AUC as % compared to control]", "setting": "[1]", "result": "+73%"}
    ]},
    {"smiles": "COCCOc1ncc(C(=O)N[C@@H]2CCCC[C@H]2O)cc1-c1ccc(Cl)cc1", "note": "[5-(4-chloro-phenyl)-N-((1R,2R)-2-hydroxy-cyclohexyl)-6-(2-methoxy-ethoxy)-nicotinamide]", "values": [
      {"measurement": "HDL Cholesterol levels [AUC as % compared to control]", "setting": "[3]; [4]", "result": "+50%"}
    ]},
    {"smiles": "O=C(N[C@@H]1CCCC[C@H]1O)c1cnc(OCC2CC2)c(-c2ccc(Cl)cc2)c1", "note": "[5-(4-chloro-phenyl)-6-cyclopropylmethoxy-N-((1R,2R)-2-hydroxy-cyclohexyl)-nicotinamide]", "values": [
      {"measurement": "HDL Cholesterol levels [AUC as % compared to control]", "setting": "[1]", "result": "+30%"},
      {"measurement": "HDL Cholesterol levels [AUC as % compared to control]", "setting": "[3]; [4]", "result": "+84%"}
    ]},
    {"smiles": "Cc1c(C(=O)NN2CCCCC2)nn(-c2ccc(Cl)cc2Cl)c1-c1ccc(Cl)cc1", "note": "[Rimonabant, reference compound]", "values": [
      {"measurement": "HDL Cholesterol levels [AUC as % compared to control]", "setting": "[3]; 10 mg/kg food admix", "result": "+11%"}
    ]},
    {"smiles": "CCCCOc1ncc(C(=O)N[C@@H]2CCCC[C@H]2O)cc1-c1cc(C(F)(F)F)ccc1F", "values": [
      {"measurement": "melting point", "result": "172 to 178", "unit": "°C"}
    ]}
  ]
}
